Activity calls are given as the source filed them.
What was measured:
[1] = biological target: T1, Apoptotic protease-activating factor 1 (Homo sapiens, UniProt O14727); type: functional
T1 sequence (O14727 whole entry): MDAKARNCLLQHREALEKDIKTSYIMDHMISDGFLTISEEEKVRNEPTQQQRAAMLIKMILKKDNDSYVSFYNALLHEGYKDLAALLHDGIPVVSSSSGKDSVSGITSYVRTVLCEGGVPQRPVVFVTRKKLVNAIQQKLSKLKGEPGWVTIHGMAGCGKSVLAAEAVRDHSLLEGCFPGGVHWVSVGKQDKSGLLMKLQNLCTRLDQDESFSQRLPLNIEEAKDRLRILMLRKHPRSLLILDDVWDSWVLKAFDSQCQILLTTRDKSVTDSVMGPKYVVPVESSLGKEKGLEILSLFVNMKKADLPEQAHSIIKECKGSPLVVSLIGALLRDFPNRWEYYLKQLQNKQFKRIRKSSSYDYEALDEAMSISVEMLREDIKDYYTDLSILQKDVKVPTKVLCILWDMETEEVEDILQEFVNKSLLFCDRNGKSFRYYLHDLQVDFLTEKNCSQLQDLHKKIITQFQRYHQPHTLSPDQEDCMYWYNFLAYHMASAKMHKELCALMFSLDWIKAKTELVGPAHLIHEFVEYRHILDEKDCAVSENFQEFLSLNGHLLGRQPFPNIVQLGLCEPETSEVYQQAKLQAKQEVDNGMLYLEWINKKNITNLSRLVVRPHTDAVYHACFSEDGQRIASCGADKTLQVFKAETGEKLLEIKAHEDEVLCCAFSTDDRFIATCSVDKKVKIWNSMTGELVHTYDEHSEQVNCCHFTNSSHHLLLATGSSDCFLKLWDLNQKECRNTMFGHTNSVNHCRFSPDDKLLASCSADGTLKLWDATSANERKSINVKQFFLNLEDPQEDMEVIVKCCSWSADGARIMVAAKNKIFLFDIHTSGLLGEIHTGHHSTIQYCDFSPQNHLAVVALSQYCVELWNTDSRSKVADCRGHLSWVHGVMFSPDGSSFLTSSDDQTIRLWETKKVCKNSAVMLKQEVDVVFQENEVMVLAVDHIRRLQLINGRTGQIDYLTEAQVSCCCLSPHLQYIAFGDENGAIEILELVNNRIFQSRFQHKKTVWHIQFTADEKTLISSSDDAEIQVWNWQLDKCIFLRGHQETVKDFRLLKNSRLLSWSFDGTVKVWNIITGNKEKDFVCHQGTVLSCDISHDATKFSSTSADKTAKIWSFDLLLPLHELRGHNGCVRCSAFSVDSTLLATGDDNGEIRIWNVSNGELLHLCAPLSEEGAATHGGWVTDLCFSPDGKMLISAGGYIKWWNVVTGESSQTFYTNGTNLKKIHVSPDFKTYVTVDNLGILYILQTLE

[2] = biological target: T2, Estrogen receptor (Homo sapiens, UniProt P03372);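 note: potency for inhibiting coactivator peptide recruitment to the receptor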
T2 sequence (P03372 whole entry): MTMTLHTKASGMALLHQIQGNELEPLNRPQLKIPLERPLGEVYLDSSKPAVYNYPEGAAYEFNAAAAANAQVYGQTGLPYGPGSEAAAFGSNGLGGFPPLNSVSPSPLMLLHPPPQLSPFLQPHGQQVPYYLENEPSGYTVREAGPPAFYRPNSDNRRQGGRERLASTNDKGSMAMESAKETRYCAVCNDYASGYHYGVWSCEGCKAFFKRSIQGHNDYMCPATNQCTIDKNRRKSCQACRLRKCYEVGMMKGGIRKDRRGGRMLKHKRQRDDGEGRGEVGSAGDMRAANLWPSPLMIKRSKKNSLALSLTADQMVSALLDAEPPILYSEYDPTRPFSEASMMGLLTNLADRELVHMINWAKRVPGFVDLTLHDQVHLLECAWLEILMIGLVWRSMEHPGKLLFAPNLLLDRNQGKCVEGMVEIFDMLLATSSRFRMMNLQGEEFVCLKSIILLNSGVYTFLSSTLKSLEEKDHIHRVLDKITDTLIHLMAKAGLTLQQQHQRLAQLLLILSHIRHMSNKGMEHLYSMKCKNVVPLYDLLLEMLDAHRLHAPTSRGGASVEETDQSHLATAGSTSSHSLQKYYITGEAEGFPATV

[3] = biological target: T3, Estrogen receptor beta (Homo sapiens, UniProt Q92731);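 note: recombinant ER-beta bound to coactivator SRC1 peptide in presence of estradiol agonist; inhibitors block coactivator peptide binding and lower the FRET signal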
[4] = biological target: T3, Estrogen receptor beta; assay: blockers of SRC-3 recruitment to ERβ – biochemical, ELISA, streptavidin-HRP readout, orthogonal assay, confirmation (AID 1060)
[5] = tested on: HeLa; assay: ATP-based viability loss in HeLa cells – cell-based, CellTiter-Glo luminescence, cherry-pick samples, cytotoxicity control for MITF activator project, dose response (AID 540259); type: functional; settings: Homo sapiens
[6] = tested on: HEK293; assay: inhibition of NOD1-driven NF-kB reporter – cell-based, luminescence, uHTS, primary screen (AID 1578); type: functional; settings: Homo sapiens
[7] = tested on: HEK293; assay: cells; type: functional, cell-based; settings: Homo sapiens
[8] = tested on: HEK293; assay: cells; type: functional, cell-based; settings: Homo sapiens; remark: listed apart in the source
[9] = biological target: T4, Nucleotide-binding oligomerization domain-containing protein 2 (Homo sapiens, UniProt Q9HC29); assay: inhibition of NOD2-driven NF-kB reporter – cell-based, luminescence, uHTS, HEK293 (AID 1566); type: functional
[10] = tested on: HEK293; assay: NOD2 signaling inhibitors in MDP-stimulated cells, cell-based, uHTS, luminescence (AID 2001); type: functional; settings: Homo sapiens
[11] = tested on: HEK293; assay: cells; type: functional, cell-based; settings: Homo sapiens; remark: listed apart in the source
[12] = biological target: Tumor necrosis factor (Homo sapiens, UniProt P01375); assay: analog potency on TNFa NF-kB signaling – cell-based, revised, SAR follow-up (AID 2337); type: functional
[13] = biological target: T5, Nucleotide-binding oligomerization domain-containing protein 1 (Homo sapiens, UniProt Q9Y239); assay: blockers of NOD1 pathway activity – revised, SAR follow-up (AID 2333); type: functional
T5 sequence (Q9Y239 whole entry): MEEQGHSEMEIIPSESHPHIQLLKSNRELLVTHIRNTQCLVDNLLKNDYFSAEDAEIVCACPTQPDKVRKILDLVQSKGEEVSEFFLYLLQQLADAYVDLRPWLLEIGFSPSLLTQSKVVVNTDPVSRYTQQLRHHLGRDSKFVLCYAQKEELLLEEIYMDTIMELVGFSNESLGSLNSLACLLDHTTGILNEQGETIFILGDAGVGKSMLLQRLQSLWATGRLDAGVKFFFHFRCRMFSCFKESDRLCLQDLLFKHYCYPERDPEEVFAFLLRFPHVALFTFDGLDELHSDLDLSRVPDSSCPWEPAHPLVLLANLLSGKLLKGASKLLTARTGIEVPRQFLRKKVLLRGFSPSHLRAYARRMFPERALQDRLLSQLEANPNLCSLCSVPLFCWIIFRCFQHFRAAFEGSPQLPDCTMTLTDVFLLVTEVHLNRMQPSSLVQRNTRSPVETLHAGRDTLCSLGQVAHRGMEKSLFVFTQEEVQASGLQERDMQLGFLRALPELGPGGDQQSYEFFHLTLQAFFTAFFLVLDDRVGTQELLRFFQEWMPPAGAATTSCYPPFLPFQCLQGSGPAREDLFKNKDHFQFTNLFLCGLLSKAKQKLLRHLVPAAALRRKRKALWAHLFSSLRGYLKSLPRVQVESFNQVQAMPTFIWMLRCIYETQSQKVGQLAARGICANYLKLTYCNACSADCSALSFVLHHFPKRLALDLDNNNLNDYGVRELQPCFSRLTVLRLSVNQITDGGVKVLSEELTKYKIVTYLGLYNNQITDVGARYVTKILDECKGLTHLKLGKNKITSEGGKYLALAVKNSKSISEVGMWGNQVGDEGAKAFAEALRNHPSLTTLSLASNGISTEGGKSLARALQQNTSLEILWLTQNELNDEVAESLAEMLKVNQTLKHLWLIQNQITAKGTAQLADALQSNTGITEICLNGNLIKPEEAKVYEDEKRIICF

[14] = biological target: T4, Nucleotide-binding oligomerization domain-containing protein 2; assay: PubChem AID 2334; type: functional
[15] = tested on: INS1; assay: INS-1E survival protection against cytokine death – cell-based, luminescence, retest, dose response (AID 449756); type: functional; settings: Rattus norvegicus;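 note: cell death triggered by IL-1 beta plus TNF-alpha plus IFN-gamma mixture; protective hits raise ATP signal compared with cytokine alone wells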
[16] = reduction of Shn3 3'UTR-driven luciferase in osteoblasts – cell-based, Clone20 osteoblasts, firefly luciferase, cherry-picked, dose response (AID 624132); type: functional;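 note: firefly luciferase luminescence from reporter carrying the Shn3 3'UTR in osteoblasts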
[17] = non-specific 3'UTR reporter inhibition in Clone20-Shn3RL – cell-based, Renilla luciferase, cherry-picked, counter-screen for Shn3 inhibitor project, dose response (AID 624133); type: functional
[18] = tested on: HEK293; assay: cells; settings: Homo sapiens

T4 sequence (Q9HC29 whole entry, the tested form may be a part): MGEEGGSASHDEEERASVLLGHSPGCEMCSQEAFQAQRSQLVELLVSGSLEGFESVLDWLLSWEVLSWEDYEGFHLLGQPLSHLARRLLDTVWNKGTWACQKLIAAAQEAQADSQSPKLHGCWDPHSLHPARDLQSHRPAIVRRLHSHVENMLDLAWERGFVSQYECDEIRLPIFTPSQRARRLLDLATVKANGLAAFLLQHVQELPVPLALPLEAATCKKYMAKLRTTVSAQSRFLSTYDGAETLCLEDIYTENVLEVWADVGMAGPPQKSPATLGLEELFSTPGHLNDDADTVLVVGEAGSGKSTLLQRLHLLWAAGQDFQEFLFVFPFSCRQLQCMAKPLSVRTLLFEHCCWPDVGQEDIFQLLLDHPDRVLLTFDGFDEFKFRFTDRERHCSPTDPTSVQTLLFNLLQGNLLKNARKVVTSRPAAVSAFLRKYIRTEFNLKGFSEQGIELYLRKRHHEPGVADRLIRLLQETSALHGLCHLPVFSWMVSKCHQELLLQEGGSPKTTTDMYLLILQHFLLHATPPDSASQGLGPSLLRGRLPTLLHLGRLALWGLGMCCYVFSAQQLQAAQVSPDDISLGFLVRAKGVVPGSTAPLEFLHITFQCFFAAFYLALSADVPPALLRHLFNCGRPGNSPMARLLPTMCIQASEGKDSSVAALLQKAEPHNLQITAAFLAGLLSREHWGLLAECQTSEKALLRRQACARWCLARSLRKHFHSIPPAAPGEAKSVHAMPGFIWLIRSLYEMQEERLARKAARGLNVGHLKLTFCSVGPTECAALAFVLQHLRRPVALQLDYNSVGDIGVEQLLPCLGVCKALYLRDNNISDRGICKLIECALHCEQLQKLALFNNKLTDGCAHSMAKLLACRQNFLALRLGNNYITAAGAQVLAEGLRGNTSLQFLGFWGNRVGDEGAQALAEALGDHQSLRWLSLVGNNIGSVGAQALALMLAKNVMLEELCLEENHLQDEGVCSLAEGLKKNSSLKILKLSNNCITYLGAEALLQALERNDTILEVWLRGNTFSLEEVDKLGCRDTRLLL
T3 sequence (Q92731 whole entry): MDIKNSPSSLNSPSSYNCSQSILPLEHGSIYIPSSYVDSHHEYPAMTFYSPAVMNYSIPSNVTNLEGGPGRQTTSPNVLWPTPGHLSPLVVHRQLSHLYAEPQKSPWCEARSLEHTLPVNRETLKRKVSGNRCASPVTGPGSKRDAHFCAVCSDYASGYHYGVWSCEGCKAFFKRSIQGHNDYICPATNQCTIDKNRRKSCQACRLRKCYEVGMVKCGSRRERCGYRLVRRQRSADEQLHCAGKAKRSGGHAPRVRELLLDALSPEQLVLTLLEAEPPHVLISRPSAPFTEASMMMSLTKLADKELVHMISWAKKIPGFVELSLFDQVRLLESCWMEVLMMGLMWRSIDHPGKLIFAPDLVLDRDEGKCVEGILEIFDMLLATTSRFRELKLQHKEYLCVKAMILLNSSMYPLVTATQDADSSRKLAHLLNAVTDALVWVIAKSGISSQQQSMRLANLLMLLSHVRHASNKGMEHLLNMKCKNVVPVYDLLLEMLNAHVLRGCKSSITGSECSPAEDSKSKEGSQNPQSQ
Chain of Tumor necrosis factor (P01375 whole entry, the tested form may be a part): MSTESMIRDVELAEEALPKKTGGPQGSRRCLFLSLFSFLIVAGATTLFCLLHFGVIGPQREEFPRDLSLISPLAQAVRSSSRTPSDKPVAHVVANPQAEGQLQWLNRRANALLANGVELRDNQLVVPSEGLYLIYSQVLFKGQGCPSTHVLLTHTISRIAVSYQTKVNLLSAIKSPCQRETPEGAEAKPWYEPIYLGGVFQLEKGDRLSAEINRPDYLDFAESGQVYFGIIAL

SMILES: COc1ccc(-n2nc(C(=O)NCC(=O)NC3CCCC(C)C3C)c3ccccc3c2=O)c(OC)c1 (stereo not drawn)
- IC50 [1]: 14.5 µM (active)

SMILES: Cc1snc2sc(C(=O)c3ccc(Br)cc3)c(N)c12
- IC50 [2]: 28.2 µM (active)
- IC50 [3]: > 50 µM (not active)
- IC50 [4]: 0.0857 µM (not active)
- AC50 [5]: 67.4 µM (active)

SMILES: CCOC(=O)c1c(C)[nH]c(C)c1C(=O)CSc1nc2ccccc2c(=O)n1-c1ccc(CC)cc1
- EC50 [6]: 6.9 µM (active)
- IC50 [7]: > 20 µM (inactive)
- IC50 [8]: 13.4 µM (active)
- EC50 [9]: 5.86 µM (active)
- IC50 [10]: 7.12 µM (active)
- IC50 [11]: > 20 µM (inactive)
- IC50 [12]: 11.1 µM (active)
- IC50 [13]: 15.2 µM (active)
- IC50 [14]: 12 µM (active)
- AC50 [15]: 5.33 µM (active)
- AC50 [16]: 5.36 µM (active)
- AC50 [17]: 6.48 µM (active)
- IC50 [18]: > 20 µM (inactive)
